Experimental data as given in PubChem BioAssay AID1963839 (Molecular Pharmacology Branch, DTP, NCI, 2024).

Tested on: 817829-284-R-J1-PDC complex spheroid viability
Assay: Anticancer human tumor 817829-284-R-J1-PDC patient-derived colon adenocarcinoma cell line growth inhibition [POLQ]
Conditions: for IC50: curve of first compound; for viability, T/C: stronger effect = lower value
Outline: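 PDC + HUVEC + MSC complex spheroids; POLQ inhibitors ± partner drugs; top conc. at/near clinical Cmax, else 10 microM (SN-38 1 microM), half-log dilutions; 37 degrees C, 5% CO2.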
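Further: spheroids exposed to compounds for 7 days.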
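Wherever viability, T/C is given: 100% = DMSO vehicle-treated spheroids.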

CC1COCCN1c1cc(C2(O)CC3CCC(C2)O3)c2cnn(-c3ccn[nH]3)c2n1 (configuration not stated) + Nc1ccc(C#CCN(C(=O)Cc2ncc(C(F)(F)F)cc2C(F)(F)F)c2ccc(F)cc2)nn1
IC50 (second compound 0.0316 µM): < 31.6 nM
IC50 (second compound 0.1 µM): < 31.6 nM
IC50 (second compound 0.316 µM): < 31.6 nM
IC50 (second compound 1 µM): < 31.6 nM
IC50 (second compound 3.16 µM): < 31.6 nM
IC50 (second compound 10 µM): < 31.6 nM
viability, T/C (second compound 0.0316 µM, first compound 0.0316 µM): 26.3%
viability, T/C (second compound 0.0316 µM, first compound 0.1 µM): 7.07%
viability, T/C (second compound 0.0316 µM, first compound 0.316 µM): 4.65%
viability, T/C (second compound 0.0316 µM, first compound 1 µM): 3.5%
viability, T/C (second compound 0.0316 µM, first compound 3.16 µM): 3.48%
viability, T/C (second compound 0.0316 µM, first compound 10 µM): 3.16%
viability, T/C (second compound 0.1 µM, first compound 0.0316 µM): 36%
viability, T/C (second compound 0.1 µM, first compound 0.1 µM): 9.38%
viability, T/C (second compound 0.1 µM, first compound 0.316 µM): 4.42%
viability, T/C (second compound 0.1 µM, first compound 1 µM): 3.56%
viability, T/C (second compound 0.1 µM, first compound 3.16 µM): 2.98%
viability, T/C (second compound 0.1 µM, first compound 10 µM): 2.77%
viability, T/C (second compound 0.316 µM, first compound 0.0316 µM): 25.9%
viability, T/C (second compound 0.316 µM, first compound 0.1 µM): 10.1%
viability, T/C (second compound 0.316 µM, first compound 0.316 µM): 4.5%
viability, T/C (second compound 0.316 µM, first compound 1 µM): 3.48%
viability, T/C (second compound 0.316 µM, first compound 3.16 µM): 3.21%
viability, T/C (second compound 0.316 µM, first compound 10 µM): 2.42%
viability, T/C (second compound 1 µM, first compound 0.0316 µM): 29.4%
viability, T/C (second compound 1 µM, first compound 0.1 µM): 10.3%
viability, T/C (second compound 1 µM, first compound 0.316 µM): 4.41%
viability, T/C (second compound 1 µM, first compound 1 µM): 3.09%
viability, T/C (second compound 1 µM, first compound 3.16 µM): 2.69%
viability, T/C (second compound 1 µM, first compound 10 µM): 2.28%
viability, T/C (second compound 3.16 µM, first compound 0.0316 µM): 29.5%
viability, T/C (second compound 3.16 µM, first compound 0.1 µM): 7.74%
viability, T/C (second compound 3.16 µM, first compound 0.316 µM): 3.99%
viability, T/C (second compound 3.16 µM, first compound 1 µM): 2.88%
viability, T/C (second compound 3.16 µM, first compound 3.16 µM): 2.96%
viability, T/C (second compound 3.16 µM, first compound 10 µM): 2.33%
viability, T/C (second compound 10 µM, first compound 0.0316 µM): 22%
viability, T/C (second compound 10 µM, first compound 0.1 µM): 8.66%
viability, T/C (second compound 10 µM, first compound 0.316 µM): 3.65%
viability, T/C (second compound 10 µM, first compound 1 µM): 3.1%
viability, T/C (second compound 10 µM, first compound 3.16 µM): 2.74%
viability, T/C (second compound 10 µM, first compound 10 µM): 2.24%
